# Several values for one entry are separate records, joined by “and”; a condition that tells them apart may be missing. Equal values may be shown once. Read-outs that look alike come from different tables or passages of the source.
# Assays:
# [1] = tested on: Staphylococcus epidermidis EGM-206; test: MIC against S. epidermidis EGM-206 in LB broth; format: cell-based; settings: EGM206, 16 h, 37 °C, OD600
# Procedure: (§1) Overnight cultures were diluted 1:150 in LB broth and added to a 96-well plate. Antibiotics were serially diluted 1:2 and added to columns of the 96-well plate and grown at 37 °C with continuous shaking. Cell growth was measured using optical density at 600 nm (OD600). MIC assays were performed in either BioTek Synergy HT or Tecan InfiniteM200 Pro microplate readers.
# [2] = tested on: Klebsiella pneumoniae ATCC 438165; test: MIC against K. pneumoniae in LB broth; format: cell-based; settings: ATCC438165, 16 h, 37 °C, OD600
# Procedure: as §1
# [3] = tested on: P. aeruginosa PA14 mexS L46F mutant; test: MIC against fluorofolin-resistant PA14 mexS L46F mutant; format: cell-based; settings: Pseudomonas aeruginosa
# Procedure: as §1
# Single colonies were picked and inoculated into fresh LB broth. This process was repeated for a total of ten passages. At each passage, the MIC was recalculated and compared to a culture that had not been previously exposed to fluorofolin, which was also grown as a control to confirm antibiotic potency. Cells from each passage were stored as a frozen stock.
# human DHFR = molecular target: T1, human DHFR (Homo sapiens, UniProt P00374); test: Human DHFR in vitro assay; format: biochemical; settings: for Normalized activity to no drug control: human DHFR
# T1 construct: purchased R&D Systems 8456-DR
# T1 sequence (P00374 1-187): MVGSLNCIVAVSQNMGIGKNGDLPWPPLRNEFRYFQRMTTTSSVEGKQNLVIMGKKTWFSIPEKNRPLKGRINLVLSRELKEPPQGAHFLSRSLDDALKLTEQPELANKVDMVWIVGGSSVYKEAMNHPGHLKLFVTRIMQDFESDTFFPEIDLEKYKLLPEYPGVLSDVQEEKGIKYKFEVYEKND
# P. aeruginosa PA14 = test: Growth competition assay, c.f.u. of P. aeruginosa PA14; format: cell-based, Pseudomonas aeruginosa
# Procedure: Cultures of each species were grown separately as well as being mixed 1:1. […] The number of colonies on Pseudomonas Selection Agar plates is reported as the c.f.u. ml^−1 of P. aeruginosa. To calculate c.f.u.s ml^−1 of E. coli MG1655, c.f.u.s ml^−1 were determined from LB agar plates and the c.f.u.s ml^−1 of P. aeruginosa were subtracted from these values.
# E. faecalis = test: Growth with or without TMI supplementation and fluorofolin, E. faecalis; format: cell-based, Enterococcus faecalis; settings: fluorofolin 2X MIC
# Procedure: (§2) Where listed, growth media were prepared according manufacturer recommendations: LB broth and LB broth supplemented with 0.3 mM thymine (BD Biosciences 244610, Alfa Aesar A15879), 0.3 mM methionine (Sigma-Aldrich M9625), 0.3 mM inosine (EMD Millipore 4060), cation-adjusted Mueller–Hinton II broth (CAMHB) (BD 212322) or 0.3 mM thymidine (Sigma-Aldrich T1895), Gutnick minimal media (1.0 g l^−1 K2SO4, 13.5 g l^−1 K2HPO4, 4.7 g l^−1 KH2PO4, 0.1 g l^−1 MgSO4·7H2O, 10 mM NH4Cl as a nitrogen source and 0.4% w/v glucose as a carbon source)[65].
# (§3) Extended Data Fig. 3 TMI supplementation can also rescue other species from fluorofolin DHFR inhibition. […] (f) P. aeruginosa PA14 or E. coli lptd4213 treated with fluorofolin 50 μg/mL in the presence or absence of 0.3 mM thymidine. (g) E. coli lptd4213 treated with fluorofolin 50 μg/mL and SMX (78.1 μg/mL) in the presence or absence of 0.3 mM thymidine or 0.3 mM TMI supplementation, Curves represent average optical at 600 nm (OD600) of 2 biological replicates. Means are shown. Source data
# S. aureus USA300 = test: Growth with or without TMI supplementation and fluorofolin, S. aureus USA300; format: cell-based, Staphylococcus aureus; settings: fluorofolin 2X MIC
# Procedure: as §2, §3
# [4] = tested on: P. aeruginosa clinical isolates; format: cell-based, Pseudomonas aeruginosa
# Procedure: Percent growth was calculated by dividing the OD600 of fluorofolin antibiotic-treated wells by that of vehicle-only wells.
smiles,measurement,setting,value
Nc1nc(N)c2c(ccc3c2ccn3Cc2ccnc(F)c2)n1 [fluorofolin],MIC,[1],0.312 µg/mL
same,MIC,[2],6.25 µg/mL
same,MIC,[3],62.5 µg/mL
same,Normalized activity to no drug control,human DHFR; Fluorofolin 0.12207 nM,1.039
same,Normalized activity to no drug control,human DHFR; Fluorofolin 0.488281 nM,1.039
same,Normalized activity to no drug control,"human DHFR; Fluorofolin 1.95312 nM, replicates _1, _2",0.9215 and 1.02
same,Normalized activity to no drug control,"human DHFR; Fluorofolin 7.8125 nM, replicates _1, _2",0.5724 and 0.64
same,Normalized activity to no drug control,"human DHFR; Fluorofolin 31.25 nM, replicates _1, _2",0.387 and 0.4828
same,Normalized activity to no drug control,"human DHFR; Fluorofolin 125 nM, replicates _1, _2",0.2567 and 0.2221
same,Normalized activity to no drug control,"human DHFR; Fluorofolin 500 nM, replicates _1, _2",0.1373 and 0.1034
same,Normalized activity to no drug control,"human DHFR; Fluorofolin 2000 nM, replicates _1, _2",0.03994 and 0.01531
same,IC50,human DHFR; purified human DHFR,14 ± 4 nM
same,growth in co-culture with TMI supplementation,"P. aeruginosa PA14; PA14 : E. coli MG1655 1:1, 50 μg ml^−1 fluorofolin, selective plating",selectively inhibited the growth of P. aeruginosa
same,P. Aeruginosa PA14 CFU/mL,"P. aeruginosa PA14; Panel C, Fluorofolin",39 CFU/mL and 46 CFU/mL and 40 CFU/mL
same,rescue of growth inhibition by TMI supplementation,E. faecalis,could also be rescued from fluorofolin growth inhibition by TMI supplementation
same,rescue of growth inhibition by TMI supplementation,S. aureus USA300,could also be rescued from fluorofolin growth inhibition by TMI supplementation
same,isolates inhibited,[4],90%
same,number of isolates inhibited,[4],69
same,sensitivity of isolates with dfrB2,[4],fluorofolin-sensitive
same,number of resistant isolates,"[4]; 22 blood isolates, 50 μg ml^−1",None
same,number of resistant isolates,"[4]; 55 CDC isolates, 50 μg ml^−1",8
same,clinical isolates resistant,"[4]; 77 P. aeruginosa clinical isolates (55 CDC/FDA, 22 blood), 50 μg ml^−1, growth inhibition >80% = sensitive",10.4%
same,sensitivity of carbapenemase isolates,[4]; clinical isolates expressing KPC-5 and NDM-1,remained sensitive
same,clinical isolates resistant,"[4]; earlier manuscript version quoted by reviewers, antibiotic resistance isolate bank only",14.5%

# From paper PMC11087268, “A folate inhibitor exploits metabolic differences in Pseudomonas aeruginosa for narrow-spectrum targeting” (Nature Microbiology, 2024)
